Experimental data published in patent publication US20230000813A1, “COMPOUND FOR THE TREATMENT OF BOVINE OR SWINE RESPIRATORY DISEASE” (Intervet Inc., priority 2016, published 2023).
In brackets after ≈: the same amount, converted by molar mass.

What was measured:
Assay in all cases: MIC, broth-microdilution (CLSI VET01-A4)
Assay type in all cases: cell-based
[1] = tested on: Pasteurella multocida PM 6267 (P 2225 (L386), reference strain, mouse infection strain); settings: Pasteurella multocida PM 6267; for MIC: read-out: MIC PM 6267
Method: (§1) The Minimum inhibitory concentrations (MIC) of compounds according to the invention for a number of veterinary bacterial pathogens were determined by the broth-microdilution method according to CLSI document VET01-A4.
(§2) Microdilution trays containing a doubling dilution series of the test compound were used for the tests. The MIC results were interpreted according to the CLSI documents VET01-S3. The lowest concentration of compound at which no visible growth (i.e. no turbidity) detected by the unaided eye was recorded as the MIC.
(§3) The Minimum inhibitory concentrations (MIC) of compounds according to the invention were determined by the broth-microdilution method according to CLSI document VET01-A4.
(§4) Microdilution trays containing a doubling dilution series of the test compound were used for the tests.
(§5) The MIC results were interpreted according to the CLSI documents VET01-S3. The lowest concentration of compound at which no visible growth (i.e. no turbidity) detected by the unaided eye was recorded as the MIC.

[2] = tested on: Pasteurella multocida PM 12080 (IV102277-0093, BRD field isolate); settings: Pasteurella multocida PM 12080; for MIC: read-out: MIC PM 12080
Method: as §1, §2, §3, §4, §5

[3] = tested on: Pasteurella multocida PM 6391 (ATCC 43137, reference strain); settings: Pasteurella multocida PM 6391; for MIC: read-out: MIC PM 6391
Method: as §1, §2, §3, §4, §5

[4] = tested on: Mannheimia haemolytica MH 10720 (154, BRD field isolate); settings: Mannheimia haemolytica MH 10720; for MIC: read-out: MIC MH 10720
Method: as §1, §2, §3, §4, §5

[5] = tested on: Mannheimia haemolytica MH 6357 (M7/2, reference strain, cattle infection strain); settings: Mannheimia haemolytica MH 6357; for MIC: read-out: MIC MH 6357
Method: as §1, §2, §3, §4, §5

[6] = tested on: Mannheimia haemolytica MH 12587 (1071, BRD field isolate, macrolide-resistance: erm+, E+); settings: Mannheimia haemolytica MH 12587, macrolide-resistant
Method: as §1, §2, §3, §4, §5

[7] = tested on: Mannheimia haemolytica MH 6374 (ATCC 33396, reference strain); settings: Mannheimia haemolytica MH 6374; for MIC: read-out: MIC MH 6374
Method: as §1, §2, §3, §4, §5

[8] = tested on: Pasteurella multocida PM 10775 (080130003051, BRD field isolate); settings: Pasteurella multocida PM 10775
Method: as §1, §2, §3, §4, §5

[9] = tested on: Mannheimia haemolytica MH 13065 (XB0446-6003.9, BRD field isolate)
Method: as §1, §2

[10] = tested on: Mannheimia haemolytica MH 13093 (XB0472-6014.1, BRD field isolate)
Method: as §1, §2

SMILES	MIC PM 6267 [1]	MIC PM 12080 [2]	MIC [3] [µM]	MIC [4] [µM]	MIC [5] [µM]	MIC MH 12587 [6] [µM]	MIC [7] [µM]	MIC PM 10775 [8]	MIC [9] [µM]	MIC [10] [µM]	MIC PM 6391 [3]	MIC ([8]; read-out: MIC PM 10775) [µM]	MIC [1] [µM]	MIC [2] [µM]	MIC MH 10720 [4]	MIC MH 6374 [7]	MIC MH 13065 [9]	MIC MH 6357 [5]	MIC MH 13093 [10]
CC(C)(N)C(NC(=O)c1ccc(C#Cc2ccc(CNCc3cccnc3)cc2)cc1)C(=O)NO (racemic) [C. 364]	<=0.1 μM	<=0.1 μM	0.2 (≈ 0.0943 µg/mL)	0.8 (≈ 0.377 µg/mL)	1.6 (≈ 0.754 µg/mL)	1.6 (≈ 0.754 µg/mL)	1.6 (≈ 0.754 µg/mL)	<=0.1 μM	0.8 (≈ 0.377 µg/mL)	1.6 (≈ 0.754 µg/mL)									
CC(C)(N)C(NC(=O)c1ccc(C#Cc2ccc(CNCc3ccnc(Cl)c3)cc2)cc1)C(=O)NO (racemic) [Compound 313]	<=0.1 μM	<=0.1 μM		0.4 (≈ 0.202 µg/mL)	0.8 (≈ 0.405 µg/mL)	1.6 (≈ 0.81 µg/mL)	0.8 (≈ 0.405 µg/mL)		1.6 (≈ 0.81 µg/mL)	1.6 (≈ 0.81 µg/mL)	<=0.1 μM	0.2 (≈ 0.101 µg/mL)							
CC(C)(N)C(NC(=O)c1ccc(C#Cc2ccc(CNCc3ccccc3)cc2)cc1)C(=O)NO (racemic) [Compound 321]				0.4 (≈ 0.188 µg/mL)	1.6 (≈ 0.753 µg/mL)	1.6 (≈ 0.753 µg/mL)	0.8 (≈ 0.376 µg/mL)	<=0.1 μM	0.8 (≈ 0.376 µg/mL)	1.6 (≈ 0.753 µg/mL)	<=0.1 μM		0.4 (≈ 0.188 µg/mL)	0.2 (≈ 0.0941 µg/mL)					
CC(C)(N)C(NC(=O)c1ccc(C#Cc2ccc(CNCC(F)(F)F)cc2)cc1)C(=O)NO (racemic) [Compound 623]	<=0.1 μM	<=0.1 μM	0.2 (≈ 0.0925 µg/mL)		0.8 (≈ 0.37 µg/mL)	1.6 (≈ 0.74 µg/mL)	0.4 (≈ 0.185 µg/mL)	<=0.1 μM	0.8 (≈ 0.37 µg/mL)	0.8 (≈ 0.37 µg/mL)					<=0.1 μM				
C#CCNCc1ccc(C#Cc2ccc(C(=O)NC(C(=O)NO)C(C)(C)N)cc2)cc1 (racemic) [Compound 626]	<=0.1 μM	<=0.1 μM			0.8 (≈ 0.335 µg/mL)	0.8 (≈ 0.335 µg/mL)	0.4 (≈ 0.167 µg/mL)	<=0.1 μM	0.4 (≈ 0.167 µg/mL)	0.8 (≈ 0.335 µg/mL)					<=0.1 μM				
C=CCNCc1ccc(C#Cc2ccc(C(=O)N[C@H](C(=O)NO)[C@@H](C)O)cc2)cn1 [C. 415]			0.2 (≈ 0.0817 µg/mL)		0.8 (≈ 0.327 µg/mL)	1.6 (≈ 0.654 µg/mL)	1.6 (≈ 0.654 µg/mL)	<=0.1 μM	0.4 (≈ 0.163 µg/mL)	1.6 (≈ 0.654 µg/mL)			0.2 (≈ 0.0817 µg/mL)	0.4 (≈ 0.163 µg/mL)					
CC(C)C(NC(=O)c1ccc(C#Cc2ccc(CNCC#N)cc2)cc1)C(=O)NO (stereo not shown) [Compound 346]	<=0.1 μM	<=0.1 μM			0.4 (≈ 0.162 µg/mL)	0.8 (≈ 0.324 µg/mL)	0.4 (≈ 0.162 µg/mL)	<=0.1 μM	0.2 (≈ 0.0809 µg/mL)	0.4 (≈ 0.162 µg/mL)					<=0.1 μM				
C[C@@H](O)[C@H](NC(=O)c1ccc(C#Cc2ccc(CNC3CC3)s2)cc1)C(=O)NO [Compound 398]	<=0.1 μM	<=0.1 μM			0.4 (≈ 0.165 µg/mL)	0.4 (≈ 0.165 µg/mL)	0.8 (≈ 0.331 µg/mL)	<=0.1 μM	0.2 (≈ 0.0827 µg/mL)	0.2 (≈ 0.0827 µg/mL)	<=0.1 μM								
C[C@@H](O)[C@H](NC(=O)c1ccc(C#Cc2ccc(CNCc3ccncc3)s2)cc1)C(=O)NO [Compound 401]	<=0.1 μM		0.2 (≈ 0.0929 µg/mL)		0.4 (≈ 0.186 µg/mL)	0.8 (≈ 0.372 µg/mL)	0.8 (≈ 0.372 µg/mL)	<=0.1 μM	0.4 (≈ 0.186 µg/mL)	0.8 (≈ 0.372 µg/mL)				0.2 (≈ 0.0929 µg/mL)					
C[C@@H](O)[C@H](NC(=O)c1ccc(C#Cc2ccc(CNC3CCC3)s2)cc1)C(=O)NO [Compound 402]	<=0.1 μM		0.2 (≈ 0.0855 µg/mL)		0.8 (≈ 0.342 µg/mL)	1.6 (≈ 0.684 µg/mL)	0.8 (≈ 0.342 µg/mL)	<=0.1 μM	0.4 (≈ 0.171 µg/mL)	0.8 (≈ 0.342 µg/mL)				0.4 (≈ 0.171 µg/mL)					
CCCNCc1ccc(C#Cc2ccc(C(=O)N[C@H](C(=O)NO)[C@@H](C)O)cc2)s1 [Compound 404]			0.4 (≈ 0.166 µg/mL)		1.6 (≈ 0.665 µg/mL)	1.6 (≈ 0.665 µg/mL)	1.6 (≈ 0.665 µg/mL)	<=0.1 μM	0.8 (≈ 0.332 µg/mL)	1.6 (≈ 0.665 µg/mL)			0.4 (≈ 0.166 µg/mL)	0.8 (≈ 0.332 µg/mL)					
C[C@@H](O)[C@H](NC(=O)c1ccc(C#Cc2ccc(CNCC#N)s2)cc1)C(=O)NO [Compound 406]	<=0.1 μM		0.2 (≈ 0.0825 µg/mL)		1.6 (≈ 0.66 µg/mL)	1.6 (≈ 0.66 µg/mL)	1.6 (≈ 0.66 µg/mL)	<=0.1 μM	0.8 (≈ 0.33 µg/mL)	1.6 (≈ 0.66 µg/mL)				0.4 (≈ 0.165 µg/mL)					
C[C@@H](O)[C@H](NC(=O)c1ccc(C#Cc2ccc(CNCc3cccnc3)s2)cc1)C(=O)NO [Compound 407]	<=0.1 μM	<=0.1 μM			0.4 (≈ 0.186 µg/mL)	0.4 (≈ 0.186 µg/mL)	0.4 (≈ 0.186 µg/mL)	<=0.1 μM	0.2 (≈ 0.0929 µg/mL)	0.4 (≈ 0.186 µg/mL)	<=0.1 μM								
C[C@@H](O)[C@H](NC(=O)c1ccc(C#Cc2ccc(CNCc3ccccn3)s2)cc1)C(=O)NO [Compound 408]	<=0.1 μM	<=0.1 μM			0.4 (≈ 0.186 µg/mL)	0.8 (≈ 0.372 µg/mL)	0.4 (≈ 0.186 µg/mL)	<=0.1 μM	0.4 (≈ 0.186 µg/mL)	0.4 (≈ 0.186 µg/mL)	<=0.1 μM								
C[C@@H](O)[C@H](NC(=O)c1ccc(C#Cc2ccc(CNCc3ccco3)s2)cc1)C(=O)NO [Compound 409]	<=0.1 μM	<=0.1 μM			0.2 (≈ 0.0907 µg/mL)	0.4 (≈ 0.181 µg/mL)		<=0.1 μM		0.2 (≈ 0.0907 µg/mL)	<=0.1 μM					<=0.1 μM	<=0.1 μM		
C[C@@H](O)[C@H](NC(=O)c1ccc(C#Cc2ccc(CNCc3cccs3)s2)cc1)C(=O)NO [Compound 410]	<=0.1 μM	<=0.1 μM				0.2 (≈ 0.0939 µg/mL)		<=0.1 μM			<=0.1 μM					<=0.1 μM	<=0.1 μM	<=0.1 μM	<=0.1 μM
Cc1ccc(CNCc2ccc(C#Cc3ccc(C(=O)N[C@H](C(=O)NO)[C@@H](C)O)cc3)s2)cc1 [Compound 411]	<=0.1 μM	<=0.1 μM			0.2 (≈ 0.0955 µg/mL)	0.4 (≈ 0.191 µg/mL)		<=0.1 μM		0.2 (≈ 0.0955 µg/mL)	<=0.1 μM					<=0.1 μM	<=0.1 μM		
C[C@@H](O)[C@H](NC(=O)c1ccc(C#Cc2ccc(CNCc3ccco3)nc2)cc1)C(=O)NO [Compound 424]	<=0.1 μM	<=0.1 μM			0.8 (≈ 0.359 µg/mL)	1.6 (≈ 0.718 µg/mL)	1.6 (≈ 0.718 µg/mL)	<=0.1 μM	0.4 (≈ 0.179 µg/mL)	0.8 (≈ 0.359 µg/mL)	<=0.1 μM								
C[C@@H](O)[C@H](NC(=O)c1ccc(C#Cc2ccc(CNCc3cccs3)nc2)cc1)C(=O)NO [Compound 425]	<=0.1 μM	<=0.1 μM			0.8 (≈ 0.372 µg/mL)	0.8 (≈ 0.372 µg/mL)	0.8 (≈ 0.372 µg/mL)	<=0.1 μM	0.4 (≈ 0.186 µg/mL)	0.8 (≈ 0.372 µg/mL)	<=0.1 μM								
